Some results are limits rather than exact numbers.

In the experiment the target is T1, P2X7 receptor (Homo sapiens, UniProt Q99572).
T1 construct: host or cells: THP-1 cells differentiated with LPS and IFN-γ
T1 sequence (Q99572 1-595): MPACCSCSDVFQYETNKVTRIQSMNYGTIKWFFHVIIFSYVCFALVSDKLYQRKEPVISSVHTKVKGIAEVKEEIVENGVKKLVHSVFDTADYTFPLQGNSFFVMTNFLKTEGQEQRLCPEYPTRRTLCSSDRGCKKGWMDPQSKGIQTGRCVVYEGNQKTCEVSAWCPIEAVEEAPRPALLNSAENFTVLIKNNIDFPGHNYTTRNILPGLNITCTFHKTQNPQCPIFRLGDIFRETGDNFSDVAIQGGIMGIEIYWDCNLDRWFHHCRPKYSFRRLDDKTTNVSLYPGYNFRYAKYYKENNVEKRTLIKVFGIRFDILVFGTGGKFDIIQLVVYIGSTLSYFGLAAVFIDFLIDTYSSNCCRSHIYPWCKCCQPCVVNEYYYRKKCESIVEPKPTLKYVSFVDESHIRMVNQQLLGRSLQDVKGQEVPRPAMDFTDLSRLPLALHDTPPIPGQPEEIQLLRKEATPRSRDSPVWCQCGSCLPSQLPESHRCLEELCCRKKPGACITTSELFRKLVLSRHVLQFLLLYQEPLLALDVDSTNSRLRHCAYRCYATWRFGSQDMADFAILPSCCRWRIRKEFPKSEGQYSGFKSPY
In words: IL-1β release assay in differentiated THP-1 cells stimulated with BzATP (Example 9); % inhibition and IC50. It is filed as cell-based. The following applies: THP-1 cells differentiated with LPS and IFN-γ, 30 min pretreatment, BzATP 250 uM, IL-1β by ELISA. As to the method:
The cells are then pretreated for 30 minutes with the compound of interest at the appropriate concentration in RPMI media containing 100 IU/mL penicillin, 100 ug/mL streptomycin. […] 30 uL of cell supernatant is then collected and IL-1β levels determined via ELISA (R&D systems Cat. # HSLB50) according to manufacturer's recommendations using the Tecan Safire plate reader. Background adjusted IL-1β levels of drug treated and non-treated cells are used to calculate the percent inhibition.
The compounds set forth in Table 1 were tested for activity in a cellular model as described herein.
For the compound `O=C(Nc1cccc2c(=O)n(CCO)ccc12)c1ccccc1` [Compound 1], the IC50 was more than 1 µM.

Take `COc1ccc(CC(=O)Nc2cccc3c(=O)n(CCO)ccc23)cc1` [Compound 2]: the IC50 is more than 1 µM.

Consider `O=C(CCc1ccccc1)Nc1cccc2c(=O)n(CCO)ccc12` [Compound 3], for which the IC50 is 0.272 µM.

On to `O=C(Cc1ccc(Cl)cc1)Nc1cccc2c(=O)n(CCO)ccc12` [Compound 4], for which the IC50 turned out to be 0.317 µM.

As for `COc1ccc(C(=O)Nc2cccc3c(=O)n(C(CO)CO)ccc23)c(OC)c1` [Compound 5], the IC50 is more than 1 µM.

On to `O=C(Nc1cccc2c(=O)n(CCO)ccc12)c1ccc(C(F)(F)F)cc1C(F)(F)F` [Compound 6], for which the IC50 was determined as 0.311 µM.

Regarding `O=C(Cc1ccc(C(F)(F)F)cc1)Nc1cccc2c(=O)n(CCO)ccc12` [Compound 7], the IC50 was found to be 0.289 µM.

For `O=C(Cc1ccc(Cl)c(Cl)c1)Nc1cccc2c(=O)n(CCO)ccc12` [Compound 8], the 50% inhibitory concentration (IC50) turned out to be 0.0303 µM.

`O=C(CCc1cc(C(F)(F)F)cc(C(F)(F)F)c1)Nc1cccc2c(=O)n(CCO)ccc12` [Compound 61]: the IC50 was more than 1 µM.

For `O=C(CCc1cc(C(F)(F)F)ccc1C(F)(F)F)Nc1cccc2c(=O)n(CCO)ccc12` [Compound 62], the IC50 was determined as 0.0222 µM.

Consider `O=C(Cc1ccc2c(c1)OCCO2)Nc1cccc2c(=O)n(CCO)ccc12` [Compound 63], for which the IC50 was more than 1 µM.

Regarding `O=C(Cc1cc(C(F)(F)F)cc(C(F)(F)F)c1)Nc1cccc2c(=O)n(CCO)ccc12` [Compound 64], the IC50 was determined as 0.113 µM.

As for `COc1ccc(CC(=O)Nc2cccc3c(=O)n(CCO)ccc23)cc1Br` [Compound 66], the IC50 was determined as 0.11 µM.

Regarding `O=C(Cc1cc(C(F)(F)F)ccc1Cl)Nc1cccc2c(=O)n(CCO)ccc12` [Compound 67], the IC50 was more than 1 µM.

Take `O=C(Cc1cc(Cl)ccc1C(F)(F)F)Nc1cccc2c(=O)n(CCO)ccc12` [Compound 68]: the IC50 was 0.72 µM.

Turning to `O=C(Cc1ccc(Cl)cc1Cl)Nc1cccc2c(=O)n(CCO)ccc12` [Compound 69], the IC50 was 0.0108 µM.

As to `O=C(Cc1cc(C(F)(F)F)ccc1C(F)(F)F)Nc1cccc2c(=O)n(CCO)ccc12` [Compound 70], the IC50 was determined as 0.406 µM.

For the compound `CS(=O)(=O)c1ccc(CCC(=O)Nc2cccc3c(=O)n(CCO)ccc23)cc1` [Compound 71], the IC50 was more than 1 µM.

`CS(=O)(=O)c1ccc(CC(=O)Nc2cccc3c(=O)n(CCO)ccc23)cc1` [Compound 72]: the IC50 was more than 1 µM.

Take `O=C(Cc1ccc(F)cc1)Nc1cccc2c(=O)n(CCO)ccc12` [Compound 73]: the IC50 came out at 0.532 µM.

As to `CCC(C(=O)Nc1cccc2c(=O)n(CCO)ccc12)c1ccccc1` (stereo not drawn) [Compound 74], the IC50 is more than 1 µM.

On to `COc1cccc(CC(=O)Nc2cccc3c(=O)n(CCO)ccc23)c1` [Compound 75], for which the IC50 was more than 1 µM.

On to `O=C(Cc1ccccc1)Nc1cccc2c(=O)n(CCO)ccc12` [Compound 76], for which the IC50 was more than 1 µM.

As to `COc1ccc(OC)c(CC(=O)Nc2cccc3c(=O)n(CCO)ccc23)c1` [Compound 77], the half-inhibitory concentration (IC50) is more than 1 µM.

Take `CC(C)C(C(=O)Nc1cccc2c(=O)n(CCO)ccc12)c1ccc(Cl)cc1` (stereo not drawn) [Compound 78]: the IC50 is more than 1 µM.

Consider `O=C(Cc1ccc(Cl)c(Cl)c1)Nc1cccc2c(=O)n(C(CO)CO)ccc12` [Compound 80], for which the IC50 was found to be 0.0275 µM.

In the case of `O=C(Cc1ccc(Cl)c(C(F)(F)F)c1)Nc1cccc2c(=O)n(C(CO)CO)ccc12` [Compound 81, 2-(4-Chloro-3-trifluoromethyl-phenyl)-N-[2-(2-hydroxy-1-hydroxymethyl-ethyl)-1-oxo-1,2-dihydro-isoquinolin-5-yl]-acetamide], the IC50 was found to be 0.0278 µM.

With `O=C(Cc1ccc(Cl)cc1Cl)Nc1cccc2c(=O)n(C(CO)CO)ccc12` [Compound 82], the IC50 came out at 0.228 µM.

Regarding `O=C(Cc1ccc(Cl)cc1C(F)(F)F)Nc1cccc2c(=O)n(C(CO)CO)ccc12` [Compound 228], the IC50 turned out to be 0.212 µM.

With `O=C(Cc1ccc(Cl)cc1C(F)(F)F)Nc1cccc2c(=O)n(CCO)ccc12` [Compound 229], the IC50 was found to be 0.187 µM.

With `O=C(Cc1ccc(C(F)(F)F)cc1C(F)(F)F)Nc1cccc2c(=O)n(CCO)ccc12` [Compound 230], the IC50 turned out to be 0.161 µM.

Consider `CC(C(=O)Nc1cccc2c(=O)n(C(CO)CO)ccc12)c1ccc(Cl)cc1` (stereo not drawn) [Compound 231], for which the IC50 turned out to be 0.374 µM.

As for `O=C(Cc1ccc(Cl)c(C(F)(F)F)c1)Nc1cccc2c(=O)n(C[C@@H]3CCCN3)ccc12` [Compound 232, 2-(4-Chloro-3-trifluoromethyl-phenyl)-N-(1-oxo-2-(S)-1-pyrrolidin-2-ylmethyl-1,2-dihydro-isoquinolin-5-yl)-acetamide], the IC50 stood at 0.0107 µM.

Regarding `O=C(Cc1ccc(C(F)(F)F)cc1C(F)(F)F)Nc1cccc2c(=O)n(C(CO)CO)ccc12` [Compound 233], the IC50 amounted to 0.391 µM.

Consider `CNCCn1ccc2c(NC(=O)Cc3ccc(Cl)c(Cl)c3)cccc2c1=O` [Compound 234], for which the IC50 was 0.144 µM.

For `CNCCn1ccc2c(NC(=O)Cc3ccc(Cl)c(C(F)(F)F)c3)cccc2c1=O` [Compound 235, 2-(4-Chloro-3-trifluoromethyl-phenyl)-N-[2-(2-methylamino-ethyl)-1-oxo-1,2-dihydro-isoquinolin-5-yl]-acetamide], the IC50 turned out to be 0.0706 µM.

In the case of `C[C@@H](C(N)=O)n1ccc2c(NC(=O)Cc3ccc(Cl)c(Cl)c3)cccc2c1=O` [Compound 236, (S)-2-{5-[2-(3,4-Dichloro-phenyl)-acetylamino]-1-oxo-1H-isoquinolin-2-yl}-propionamide], the IC50 was determined as 0.0466 µM.

As to `C[C@@H](C(N)=O)n1ccc2c(NC(=O)Cc3ccc(Cl)cc3C(F)(F)F)cccc2c1=O` [Compound 237, (S)-2-{5-[2-(4-Chloro-2-trifluoromethyl-phenyl)-acetylamino]-1-oxo-1H-isoquinolin-2-yl}-propionamide], the half-maximal inhibitory concentration (IC50) turned out to be 0.00627 µM.

On to `C[C@H](C(N)=O)n1ccc2c(NC(=O)Cc3ccc(Cl)c(C(F)(F)F)c3)cccc2c1=O` [Compound 238, (R)-2-{5-[2-(4-Chloro-3-trifluoromethyl-phenyl)-acetylamino]-1-oxo-1H-isoquinolin-2-yl}-propionamide], for which the IC50 was 0.00126 µM.

For the compound `C[C@H](C(N)=O)n1ccc2c(NC(=O)Cc3ccc(Cl)c(Cl)c3)cccc2c1=O` [Compound 239], the IC50 was determined as 0.00405 µM.

With `CC(C(=O)Nc1cccc2c(=O)n([C@@H](C)C(N)=O)ccc12)c1ccc(Cl)cc1` (stereo partly drawn) [Compound 240], the IC50 is 0.0118 µM.

Consider `C[C@H](C(N)=O)n1ccc2c(NC(=O)Cc3ccc(Cl)cc3C(F)(F)F)cccc2c1=O` [Compound 241], for which the 50% inhibitory concentration (IC50) turned out to be 0.0236 µM.

Regarding `O=C(Cc1ccc(Cl)c(C(F)(F)F)c1)Nc1cccc2c(=O)n(C[C@H]3CCCN3)ccc12` [Compound 243], the IC50 was 0.0358 µM.

For the compound `O=C(Cc1ccc(Cl)c(Cl)c1)Nc1cccc2c(=O)n(C[C@H]3CCCN3)ccc12` [Compound 245], the IC50 was 0.0465 µM.

For `CC(C(=O)Nc1cccc2c(=O)n(C[C@@H]3CCCN3)ccc12)c1ccc(Cl)cc1` (stereo partly drawn) [Compound 246], the IC50 came to 0.113 µM.

Turning to `CC(C(=O)Nc1cccc2c(=O)n([C@H](C)C(N)=O)ccc12)c1ccc(Cl)cc1` (stereo partly drawn) [Compound 247], the concentration for half-maximal inhibition (IC50) came to 0.0188 µM.

Turning to `O=C(Cc1ccc(Cl)c(Cl)c1)Nc1c(Cl)ccc2c(=O)n(CCO)ccc12` [Compound 248], the IC50 was more than 1 µM.

On to `NC(=O)Cn1ccc2c(NC(=O)Cc3ccc(Cl)c(C(F)(F)F)c3)cccc2c1=O` [Compound 249, 2-{5-[2-(4-Chloro-3-trifluoromethyl-phenyl)-acetylamino]-1-oxo-1H-isoquinolin-2-yl}-acetamide], for which the IC50 is 0.00483 µM.

As for `NC(=O)[C@H](CO)n1ccc2c(NC(=O)Cc3ccc(Cl)c(C(F)(F)F)c3)cccc2c1=O` [Compound 250, (S)-2-{5-[2-(4-Chloro-3-trifluoromethyl-phenyl)-acetylamino]-1-oxo-1H-isoquinolin-2-yl}-3-hydroxy-propionamide], the IC50 was found to be 0.0151 µM.

Consider `CC(C(=O)Nc1cccc2c(=O)n(CCO)ccc12)c1ccc(Cl)c(C(F)(F)F)c1` (stereo not drawn) [Compound 251], for which the IC50 was found to be 0.0573 µM.

In the case of `CC(C(=O)Nc1cccc2c(=O)n([C@H](CO)C(N)=O)ccc12)c1ccc(Cl)cc1` (stereo partly drawn) [Compound 252, (R)-2-{5-[2-(4-Chloro-phenyl)-propionylamino]-1-oxo-1H-isoquinolin-2-yl}-3-hydroxy-propionamide], the IC50 was found to be 0.161 µM.

On to `NC(=O)[C@H](CO)n1ccc2c(NC(=O)Cc3ccc(Cl)c(Cl)c3)cccc2c1=O` [Compound 253], for which the IC50 was 0.763 µM.

`CC(C(=O)Nc1cccc2c(=O)n([C@H](C)C(N)=O)ccc12)c1ccc(Cl)c(Cl)c1` (stereo partly drawn) [Compound 254]: the IC50 came to 0.0253 µM.

As for `C[C@H](C(N)=O)n1ccc2c(NC(=O)Cc3cccc(Cl)c3)cccc2c1=O` [Compound 255], the IC50 was 0.0216 µM.

The record behind these values is patent US7816371B2, “Bicycloheteroaryl compounds as P2X7 modulators and uses thereof” (Renovis, Inc., priority 2006, dated 2010).
